A word on the pIC50: it is −log10 of the IC50, conventionally taken in molar units. Read a low pIC50 as a high IC50.

The target in the experiment is T1, PPARγ (Homo sapiens, UniProt P37231).
T1 construct: made in house
T1 sequence (P37231 1-505): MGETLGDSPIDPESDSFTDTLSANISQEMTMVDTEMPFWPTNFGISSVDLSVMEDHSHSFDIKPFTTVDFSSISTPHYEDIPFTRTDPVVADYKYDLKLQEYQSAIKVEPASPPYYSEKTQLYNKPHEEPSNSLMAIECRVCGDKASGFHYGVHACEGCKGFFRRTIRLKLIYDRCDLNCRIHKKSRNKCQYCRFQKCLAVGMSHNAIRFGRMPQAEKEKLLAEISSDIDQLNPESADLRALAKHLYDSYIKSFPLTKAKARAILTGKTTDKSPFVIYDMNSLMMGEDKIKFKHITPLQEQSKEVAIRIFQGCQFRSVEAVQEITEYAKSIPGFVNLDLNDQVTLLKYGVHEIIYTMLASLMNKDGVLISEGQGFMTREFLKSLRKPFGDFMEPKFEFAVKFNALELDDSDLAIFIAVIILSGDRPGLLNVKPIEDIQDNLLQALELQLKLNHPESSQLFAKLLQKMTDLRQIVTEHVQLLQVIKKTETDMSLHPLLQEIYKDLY
Briefly: PPARγ ligand binding assay utilizing [3H]-BRL 49653 as the radioligand (filtration). Conditions: concentration required to reduce by 50% the specific binding of [3H]-BRL 49653. The procedure, abridged:
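Displacement of 10 nM [3H]-BRL 49653 from PPARγ-GST fusion protein in Tris-HCl pH 8.0 buffer with KCl, DTT, BSA and NP-40, 15 min incubation, then glutathione-bead capture for 1 h. Bound radioactivity counted after filtration washes; IC50 is concentration giving 50% loss of specific binding, reported in ranges.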

pIC50: −log10 of the molar value.

The molecule `Cc1cc(S(=O)(=O)Nc2nnc(Sc3ccc(S(=O)(=O)N4CCCCC4)cc3)cc2C)c(Cl)cc1Cl` [Compound 139, 2,4-Dichloro-5-methyl-N -{4-methyl-6-[4-(piperidine-1-sulfonyl)-phenylsulfanyl]-pyridazin-3-yl}-benzenesulfonamide] showed a pIC50 of more than 6.00. Molecule `Cc1cc(S(=O)(=O)Nc2ccc(Sc3ccc(S(=O)(=O)N4CCCCC4)cc3)nn2)c(Cl)cc1Cl` [Compound 140, 2,4-Dichloro-5-methyl-N-{6-[4-(piperidine-1-sulfonyl) -phenylsulfanyl]-pyridazin-3-yl}-benzenesulfonamide] gave a pIC50 of more than 6.00.

For the origin of these results see patent publication US7893077B2, “Bisaryl-sulfonamides” (Amgen Inc., priority 2004, dated 2011).
